In experiment [1] the target is T1, EGFR[T790M/C797S/d746-750] (Homo sapiens, UniProt P00533, C797S/DEL746-750/T790M).
T1 construct: purchased Carna Bio
The experiment in a line: Inhibition of EGFR[T790M/C797S/d746-750] biochemical enzymatic activity (HTRF). On the procedure:
(§1) Biological Example 1: Inhibition of EGFR WT and Mutant Biochemical Enzymatic Activity
(§2) The inhibition potency of compounds against these enzymes was assessed using Homogenous Time Resolved Fluorescence approach (HTRF, CisBio. Cat No. 62TKOPEJ).
(§3) Inhibitory effects of the compounds were determined by measuring the enzymatic activity of EGFR enzyme phosphorylates 1 μM TK Substrate-biotin in the presence of 1 mM adenosine-5′-triphosphate (ATP) and varying concentrations of the test compound. The enzyme reaction buffer contains 5 mM MgCl2, 1 mM MnC12, 0.01% CHAPS, 1 mM dithiothreitol (DTT), 0.5% dimethylsulfoxide (DMSO), and 1× supplemented enzymatic buffer. The WT and mutant EGFR enzymes (SignalChem) were added to plates containing inhibitors, followed by activation of the kinase reaction by addition of ATP and peptide substrates. After incubation for 1 h at room temperature, the reaction was stopped by the addition of the detection reagent mix containing EDTA. The fluorescence was measured at 615 nm and 665 nm, respectively with excitation wavelength at 320 nm. The calculated signal ratio of 665 nm/615 nm is proportional to the kinase activity. The concentration of compound producing 50% inhibition of the respective kinase (IC50) was calculated using four-parameter logistic fit with XL-FIT.

The target of experiment [2] is T2, EGFR L858R/T790M (Homo sapiens, UniProt P00533, L858R/T790M).
T2 construct: purchased Carna Bio
T2 sequence (P00533 25-1210 T790M/L858R): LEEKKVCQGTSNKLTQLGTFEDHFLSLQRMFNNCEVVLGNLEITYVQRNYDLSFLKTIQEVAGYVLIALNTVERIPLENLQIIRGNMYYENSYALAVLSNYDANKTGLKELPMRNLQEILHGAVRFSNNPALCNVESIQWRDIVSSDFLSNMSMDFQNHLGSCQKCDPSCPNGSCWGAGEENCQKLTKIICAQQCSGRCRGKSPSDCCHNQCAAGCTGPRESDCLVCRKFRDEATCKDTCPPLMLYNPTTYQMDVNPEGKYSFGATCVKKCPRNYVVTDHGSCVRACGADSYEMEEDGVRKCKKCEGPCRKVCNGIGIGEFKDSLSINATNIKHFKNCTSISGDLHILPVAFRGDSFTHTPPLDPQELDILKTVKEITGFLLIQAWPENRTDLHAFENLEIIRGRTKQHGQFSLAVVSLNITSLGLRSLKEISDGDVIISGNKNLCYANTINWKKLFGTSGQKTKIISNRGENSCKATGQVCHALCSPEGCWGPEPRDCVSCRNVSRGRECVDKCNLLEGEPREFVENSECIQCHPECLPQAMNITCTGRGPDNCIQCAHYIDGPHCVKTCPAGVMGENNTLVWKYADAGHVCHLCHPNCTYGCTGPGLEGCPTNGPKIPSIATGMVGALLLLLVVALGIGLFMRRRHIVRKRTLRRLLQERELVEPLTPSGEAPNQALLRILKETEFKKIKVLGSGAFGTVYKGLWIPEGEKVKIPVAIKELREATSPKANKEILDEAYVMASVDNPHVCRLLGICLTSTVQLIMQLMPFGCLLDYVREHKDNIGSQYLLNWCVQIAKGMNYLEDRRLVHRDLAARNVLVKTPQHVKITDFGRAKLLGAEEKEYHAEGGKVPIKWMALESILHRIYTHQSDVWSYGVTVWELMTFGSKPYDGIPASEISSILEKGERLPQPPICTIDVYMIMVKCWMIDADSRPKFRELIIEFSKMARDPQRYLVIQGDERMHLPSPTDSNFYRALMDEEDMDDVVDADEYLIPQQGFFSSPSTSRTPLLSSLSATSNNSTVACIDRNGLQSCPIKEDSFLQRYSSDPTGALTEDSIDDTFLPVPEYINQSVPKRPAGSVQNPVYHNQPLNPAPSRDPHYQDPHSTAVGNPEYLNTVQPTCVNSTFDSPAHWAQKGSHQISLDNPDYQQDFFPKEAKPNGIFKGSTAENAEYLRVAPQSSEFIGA
The experiment in a line: Inhibition of EGFR L858R/T790M biochemical enzymatic activity (HTRF). The note with it: 1 mM ATP. On the procedure: as §1, §2, §3

Experiment [3] concerns Ba/F3 cells expressing EGFR mutations. The experiment in a line: Cell proliferation assay, Ba/F3 cells expressing EGFR mutations (CellTiter-Glo, 72 hours). Format: cell-based. On the procedure:
(§4) Biological Example 2: Cell Proliferation Assays
(§5) Ba/F3 cells expressing EGFR mutations were seeded in 384-well plates at 5000 cells/well in RPMI1640 medium containing […]. PC-9 at 500 cells/well was seeded into 384-well plates in RPMI1640 medium with 10% FBS. After overnight incubation, the assay plates were dosed with compounds at a series of concentrations. Alongside dosing the assay plates, the day 0 plate was processed using CellTiter-Glo® Luminescent Cell Viability Assay (Promega) to measure the number of viable cells (G0). The assay plates were further incubated for 72 hours and the number of viable cells (G3) was measured. The percentage of proliferation was calculated as: […]=100×(G3 value of sample well−G0 value)/(G3 value of DMSO control−G0 value). The concentration of compound producing 50% proliferation inhibition (GI50) was further calculated in best-fit curves using XLFit software. N/A=not available.
(ATP-based viability assays read luminescence as a measure of living cells.)

The target in experiment [4] is T3, EGFR (d746-750 C797S) (Homo sapiens, UniProt P00533, C797S/DEL746-750).
T3 construct: purchased signalchem
T3 sequence (P00533 with tags, fused parts or gaps DEL746-750/C797S limits assumed): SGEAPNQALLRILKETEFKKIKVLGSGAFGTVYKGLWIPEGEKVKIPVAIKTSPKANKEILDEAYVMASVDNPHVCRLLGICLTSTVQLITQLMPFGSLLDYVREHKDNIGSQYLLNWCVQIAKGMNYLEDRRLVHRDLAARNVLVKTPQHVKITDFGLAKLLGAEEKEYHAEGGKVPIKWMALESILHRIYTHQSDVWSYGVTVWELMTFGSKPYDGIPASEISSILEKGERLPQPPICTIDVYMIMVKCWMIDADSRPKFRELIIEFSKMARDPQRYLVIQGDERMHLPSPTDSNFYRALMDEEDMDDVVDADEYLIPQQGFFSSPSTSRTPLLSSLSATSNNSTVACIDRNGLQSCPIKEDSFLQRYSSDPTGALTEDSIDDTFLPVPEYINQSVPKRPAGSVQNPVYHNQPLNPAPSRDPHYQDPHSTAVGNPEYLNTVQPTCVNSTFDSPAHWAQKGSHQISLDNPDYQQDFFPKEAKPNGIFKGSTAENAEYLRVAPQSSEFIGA
The experiment in a line: Inhibition of EGFR (d746-750 C797S) biochemical enzymatic activity (HTRF). Particulars: 1 mM ATP. On the procedure: as §1, §2, §3

Experiment [5] has as its target T4, EGFR (C797S L858R) (Homo sapiens, UniProt P00533, C797S/L858R).
T4 construct: purchased signalchem
The experiment in a line: Inhibition of EGFR (C797S L858R) biochemical enzymatic activity (HTRF). Particulars: 1 mM ATP. On the procedure: as §1, §2, §3
(In general: In TR-FRET formats the signal depends on donor and acceptor labels being close together.)

In experiment [6] the target is T5, EGFR[T790M/C797S/L858R] (Homo sapiens, UniProt P00533, C797S/L858R/T790M).
T5 construct: purchased Carna Bio
The experiment in a line: Inhibition of EGFR[T790M/C797S/L858R] biochemical enzymatic activity (HTRF). The note with it: 1 mM ATP. On the procedure: as §1, §2, §3

The target in experiment [7] is T6, EGFR wild type (Homo sapiens, UniProt P00533).
T6 construct: purchased Carna Bio
The experiment in a line: Inhibition of EGFR wild type biochemical enzymatic activity (HTRF). The note with it: 1 mM ATP. The procedure:
as §1, §2, §3

The target of experiment [8] is T7, EGFR Exon19Del (Homo sapiens, UniProt P00533, DEL746-750).
T7 construct: purchased Carna Bio
T7 sequence (P00533 with tags, fused parts or gaps DEL746-750 limits assumed): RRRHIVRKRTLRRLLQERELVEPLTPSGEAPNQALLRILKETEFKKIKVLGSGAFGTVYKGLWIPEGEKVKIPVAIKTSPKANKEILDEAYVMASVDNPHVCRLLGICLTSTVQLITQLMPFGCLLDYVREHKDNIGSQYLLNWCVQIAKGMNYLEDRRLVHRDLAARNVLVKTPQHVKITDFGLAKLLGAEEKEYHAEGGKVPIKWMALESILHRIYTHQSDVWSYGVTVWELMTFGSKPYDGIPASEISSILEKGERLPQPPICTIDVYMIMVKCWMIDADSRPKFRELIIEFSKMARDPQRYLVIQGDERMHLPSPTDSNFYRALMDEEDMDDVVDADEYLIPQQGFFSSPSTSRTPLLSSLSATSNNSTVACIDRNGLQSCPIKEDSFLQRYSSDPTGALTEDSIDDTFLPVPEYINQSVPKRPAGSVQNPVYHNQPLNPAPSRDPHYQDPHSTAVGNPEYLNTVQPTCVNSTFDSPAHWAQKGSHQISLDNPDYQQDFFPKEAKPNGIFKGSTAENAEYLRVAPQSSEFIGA
In words: Inhibition of EGFR Exon19Del biochemical enzymatic activity (HTRF). The note with it: read-out: IC50 @Del19. On the procedure: as §1, §2, §3

Experiment [9] addresses T8, EGFR Exon19Del/T790M (Homo sapiens, UniProt P00533, DEL746-750/T790M).
T8 construct: purchased Carna Bio
In words: Inhibition of EGFR Exon19Del/T790M biochemical enzymatic activity (HTRF). The note with it: 1 mM ATP. The procedure: as §1, §2, §3

For experiment [10], the target named is T9, EGFR L858R (Homo sapiens, UniProt P00533, L858R).
T9 construct: purchased Carna Bio
The experiment in a line: Inhibition of EGFR L858R biochemical enzymatic activity (HTRF). The note with it: 1 mM ATP. The procedure:
as §1, §2, §3

Experiment [11] has as its system PC-9. The experiment in a line: Cell proliferation assay, PC-9 cells (CellTiter-Glo, 72 hours). It is filed as cell-based. The note with it: PC9 cells. On the procedure:
as §4, §5

The IC50 is the concentration that gives 50% inhibition.

Molecules are shown by their SMILES. Like-named read-outs stand apart in the source and are kept apart here.

T8 sequence (P00533 with tags, fused parts or gaps DEL746-750/T790M limits assumed): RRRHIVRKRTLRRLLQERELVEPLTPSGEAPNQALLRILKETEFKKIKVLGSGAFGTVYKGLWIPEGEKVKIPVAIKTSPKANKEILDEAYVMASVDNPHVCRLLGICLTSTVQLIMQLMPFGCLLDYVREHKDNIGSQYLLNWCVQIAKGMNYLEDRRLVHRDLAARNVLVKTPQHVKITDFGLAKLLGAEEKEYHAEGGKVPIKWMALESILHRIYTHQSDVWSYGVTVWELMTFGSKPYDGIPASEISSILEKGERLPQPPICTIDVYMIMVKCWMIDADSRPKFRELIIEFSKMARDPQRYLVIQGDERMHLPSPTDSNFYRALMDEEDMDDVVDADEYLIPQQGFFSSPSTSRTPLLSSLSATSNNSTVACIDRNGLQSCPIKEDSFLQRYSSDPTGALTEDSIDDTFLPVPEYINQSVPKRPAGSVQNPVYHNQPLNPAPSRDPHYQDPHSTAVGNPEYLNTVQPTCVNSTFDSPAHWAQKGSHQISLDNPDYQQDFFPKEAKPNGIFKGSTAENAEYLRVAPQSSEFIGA
T4 sequence (P00533 25-1210 C797S/L858R): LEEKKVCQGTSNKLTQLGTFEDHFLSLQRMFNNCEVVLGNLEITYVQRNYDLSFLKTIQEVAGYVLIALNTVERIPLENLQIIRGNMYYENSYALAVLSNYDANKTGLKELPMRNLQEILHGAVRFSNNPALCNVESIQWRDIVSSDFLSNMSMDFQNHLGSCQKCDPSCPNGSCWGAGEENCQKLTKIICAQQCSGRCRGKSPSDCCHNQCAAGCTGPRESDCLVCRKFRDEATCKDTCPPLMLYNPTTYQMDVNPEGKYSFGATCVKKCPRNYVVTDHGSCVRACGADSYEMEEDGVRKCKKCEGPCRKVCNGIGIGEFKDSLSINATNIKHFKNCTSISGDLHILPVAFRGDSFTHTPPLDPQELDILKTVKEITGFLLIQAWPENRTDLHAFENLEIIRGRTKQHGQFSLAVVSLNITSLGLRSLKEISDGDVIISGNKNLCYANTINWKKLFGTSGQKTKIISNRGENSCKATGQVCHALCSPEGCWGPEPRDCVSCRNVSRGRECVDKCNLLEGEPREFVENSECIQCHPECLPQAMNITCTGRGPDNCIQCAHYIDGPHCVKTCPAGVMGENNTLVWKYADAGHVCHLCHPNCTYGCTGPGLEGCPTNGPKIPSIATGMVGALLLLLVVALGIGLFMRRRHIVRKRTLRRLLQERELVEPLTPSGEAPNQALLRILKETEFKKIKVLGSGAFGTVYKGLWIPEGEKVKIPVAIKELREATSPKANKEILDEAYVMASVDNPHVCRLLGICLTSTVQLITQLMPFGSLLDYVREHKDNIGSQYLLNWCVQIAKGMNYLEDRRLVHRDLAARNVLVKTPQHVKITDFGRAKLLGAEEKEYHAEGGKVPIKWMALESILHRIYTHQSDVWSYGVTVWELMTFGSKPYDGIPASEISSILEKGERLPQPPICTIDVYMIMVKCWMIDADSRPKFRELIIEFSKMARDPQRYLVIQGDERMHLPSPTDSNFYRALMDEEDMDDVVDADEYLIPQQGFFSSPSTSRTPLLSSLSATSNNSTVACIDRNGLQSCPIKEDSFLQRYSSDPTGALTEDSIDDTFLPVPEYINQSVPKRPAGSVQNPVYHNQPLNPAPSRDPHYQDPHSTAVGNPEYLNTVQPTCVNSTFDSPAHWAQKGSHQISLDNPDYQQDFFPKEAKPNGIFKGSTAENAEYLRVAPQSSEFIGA
T1 sequence (P00533 with tags, fused parts or gaps DEL746-750/T790M/C797S limits assumed): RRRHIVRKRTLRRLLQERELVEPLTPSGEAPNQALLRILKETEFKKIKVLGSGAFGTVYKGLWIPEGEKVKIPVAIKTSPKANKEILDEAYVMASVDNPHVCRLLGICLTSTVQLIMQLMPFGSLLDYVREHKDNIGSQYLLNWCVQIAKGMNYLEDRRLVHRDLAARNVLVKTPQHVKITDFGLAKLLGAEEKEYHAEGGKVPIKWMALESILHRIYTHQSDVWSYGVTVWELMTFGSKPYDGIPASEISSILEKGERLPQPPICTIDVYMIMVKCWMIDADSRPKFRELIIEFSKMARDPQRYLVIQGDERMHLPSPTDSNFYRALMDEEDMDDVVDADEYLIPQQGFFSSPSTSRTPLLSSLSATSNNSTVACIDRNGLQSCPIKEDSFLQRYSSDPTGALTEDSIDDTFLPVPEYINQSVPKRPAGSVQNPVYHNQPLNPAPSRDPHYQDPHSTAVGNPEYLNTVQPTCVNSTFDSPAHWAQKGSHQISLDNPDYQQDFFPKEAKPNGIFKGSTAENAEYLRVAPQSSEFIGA

With `Cc1cc2cc(n1)-c1cnn(C)c1OCCN1CC3CCC(C3)(C1)n1c(nc3ccc(N4CCC5(CCN(C)CC5)C4)cc31)NC2=O` (single isomer, unassigned) [Example B51A], the IC50 in [1] (EGFR[T790M/C797S/d746-750], 1 mM ATP, 1 h at room temperature, read-out: IC50 @T790M - C797S - Del19) was 1100 nM; in experiment [2] (EGFR L858R/T790M, 1 h at room temperature, read-out: IC50 @L858R-T790M), > 5000 nM; in experiment [4] (EGFR (d746-750 C797S), 1 h at room temperature, read-out: IC50 @Del19-C797S), > 5000 nM; in experiment [5] (EGFR (C797S L858R), 1 h at room temperature, read-out: IC50 @L858-C797S), > 5000 nM; in experiment [6] (EGFR[T790M/C797S/L858R], 1 h at room temperature, read-out: IC50 @T790M- C797S - L858R), > 5000 nM; in [7] (EGFR wild type, 1 h at room temperature, read-out: IC50 @WT) it was > 5000 nM. Also, the IC50 in [8] (EGFR Exon19Del, 1 mM ATP, 1 h at room temperature) is > 5000 nM; in experiment [9] (EGFR Exon19Del/T790M, 1 h at room temperature, read-out: IC50 @Del19-T790M), 3370 nM; in [10] (1 h at room temperature, read-out: IC50 @L858R) it was > 5000 nM. The GI50 in experiment [3] (BaF3 cells, EGFR DEL19 - C797S, read-out: GI50 DEL19 - C797S/BaF3) came out at 357 nM; in [3] (BaF3 cells, EGFR DEL19 - T790-C797S, read-out: GI50 DEL19 - T790-C797S/BaF3) it was 615 nM; in experiment [3] (BaF3 cells, EGFR L858R - C797S, read-out: GI50 L858R - C797S/BaF3), 1080 nM; in experiment [3] (BaF3 cells, EGFR L858R - T790-C797S, read-out: GI50 L858R - T790-C797S/BaF3), 124 nM; in [3] (BaF3 cells, EGFR L858R - T790M, read-out: GI50 L858R - T790M/BaF3), 383 nM; in experiment [3] (BaF3 cells, EGFR L858R, read-out: GI50 L858R/BaF3), 2850 nM. For the same compound, the GI50 in experiment [3] (EGFR DEL19 - T790M, read-out: GI50 DEL19 - T790M) turned out to be 530 nM; in experiment [11] (read-out: GI50 PC9), 3020 nM.
For `CN1C2CC1CN(c1ccc3nc4n(c3c1)C13CCC(CN(CCOc5c(cnn5C)-c5cc(cn(C)c5=O)C(=O)N4)C1)C3)C2` (single isomer, unassigned) [Example A98A], the IC50 was 2080 nM in experiment [1] (EGFR T790M-C797S-Del19, 1 mM ATP, 1 h, room temperature, read-out: IC50 (nM) @T790M - C797S - Del19); > 5000 nM in experiment [2] (EGFR L858R-T790M, 1 h, room temperature, read-out: IC50 (nM) @L858R-T790M); 391 nM in experiment [4] (EGFR Del19-C797S, 1 h, room temperature, read-out: IC50 (nM) @Del19-C797S); 3370 nM in experiment [5] (EGFR L858-C797S, 1 h, room temperature, read-out: IC50 (nM) @L858-C797S); > 5000 nM in [6] (EGFR T790M-C797S-L858R, 1 h, room temperature, read-out: IC50 (nM) @T790M- C797S - L858R); > 5000 nM in [7] (EGFR WT, 1 h, room temperature, read-out: IC50 (nM) @WT). Further, the half-maximal inhibitory concentration (IC50) in experiment [8] (EGFR Del19, 1 mM ATP, 1 h, room temperature) was found to be 235 nM; in experiment [9] (EGFR Del19-T790M, 1 h, room temperature, read-out: IC50 (nM) @Del19-T790M), 3410 nM; in experiment [10] (1 h, room temperature, read-out: IC50 (nM) @L858R), 1270 nM. Further, the GI50 is 95 nM in experiment [3] (BaF3 cells, EGFR DEL19-C797S, CellTiter-Glo, read-out: DEL19-C797S/BaF3 GI50); 340 nM in experiment [3] (BaF3 cells, EGFR DEL19-T790-C797S, CellTiter-Glo, read-out: DEL19-T790-C797S/BaF3 GI50); 47 nM in experiment [3] (BaF3 cells, EGFR L858R, CellTiter-Glo, read-out: L858R/BaF3 GI50); 173 nM in [3] (BaF3 cells, EGFR L858R-C797S, CellTiter-Glo, read-out: L858R-C797S/BaF3 GI50); 49 nM in experiment [3] (BaF3 cells, EGFR L858R-T790-C797S, CellTiter-Glo, read-out: L858R-T790-C797S/BaF3 GI50); 343 nM in experiment [3] (BaF3 cells, EGFR L858R-T790M, CellTiter-Glo, read-out: L858R-T790M/BaF3 GI50). Further, the GI50 in experiment [3] (EGFR DEL19-T790M, CellTiter-Glo, read-out: DEL19-T790M GI50) was 171 nM; in [11] (CellTiter-Glo, read-out: PC9 GI50), 297 nM.

The values are drawn from US20260365670A1, “EGFR INHIBITORS AND USES THEREOF” (DIZAL (JIANGSU) PHARMACEUTICAL CO., LTD., priority 2022, published 2026).
